# Data: patent US10517889B2, “Modulators of SMAD7 expression” (Ionis Pharmaceuticals, Inc., priority 2017, dated 2019)
# System: human SMAD7 mRNA
# Test: Dose-dependent inhibition of human SMAD7 mRNA expression in Hep3B cells, comparison with ION 28453 (Example 4)
# Type: cell-based
# Conditions: electroporation, approximately 16 hours
# Method: Cells were plated at a density of 20,000 cells per well and transfected using electroporation with 0.25 μM, 0.74 μM, 2.22 μM, 6.67 μM, or 20.00 μM concentrations of antisense oligonucleotide, as specified in the Tables below. After a treatment period of approximately 16 hours, RNA was isolated from the cells and SMAD7 mRNA levels were measured by quantitative real-time PCR. Primer probe set RTS5062 was used to measure human SMAD7 mRNA levels. SMAD7 mRNA levels were adjusted according to total RNA content, as measured by RIBOGREEN®. Results are presented as percent inhibition of SMAD7 mRNa expression, relative to untreated control cells.
# The half maximal inhibitory concentration (IC50) of each oligonucleotide is also presented. […] Several newly designed antisense oligonucleotides had greater potency than the previously disclosed lead compound, ION 28453.
substance,measurement,setting,value
"798781 (CGTAAGATTCACAGCA; 3-10-3 cEt gapmer, further chemistry not given here) [compound 798781]",% inhibition of SMAD7 mRNA expression,0.25 μM,12%
same,% inhibition of SMAD7 mRNA expression,0.74 μM,38%
same,% inhibition of SMAD7 mRNA expression,2.22 μM,66%
same,% inhibition of SMAD7 mRNA expression,6.67 μM,66%
same,% inhibition of SMAD7 mRNA expression,20.00 μM,87%
same,IC50,SMAD7 mRNA,2000 nM
